Experimental data taken from patent publication US20210045385A1, “PYRIDAZINONE-SUBSTITUTED KETOXIMES AS HERBICIDES” (FMC Corporation, priority 2018, published 2021).

How the values were obtained:
Assay type in all cases: in vivo
[1] = test system: Italian ryegrass (Lolium mutiflorum); assay: Test C preemergence, visual plant response rating
How it was run: (§1)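 Seeds sown in a loam–sand blend got a directed preemergence soil spray; postemergence plants (2–10 cm, one- to two-leaf stage) were sprayed with compound in a non-phytotoxic solvent plus surfactant. Injury was scored visually against untreated controls after about 10 d in a greenhouse on a 0–100 scale (100 = complete control).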

[2] = test system: barnyardgrass (Echinochloa crus-galli); assay: Test C preemergence, visual plant response rating
How it was run: as §1

[3] = test system: foxtail, giant (giant foxtail, Setaria faberi); assay: Test C preemergence, visual plant response rating
How it was run: as §1

kochia (Bassia scoparia) [4] = assay: Test C preemergence, visual plant response rating
How it was run: as §1

[5] = test system: pigweed (Amaranthus retroflexus); assay: Test C preemergence, visual plant response rating
How it was run: as §1

[6] = test system: ragweed (common ragweed, Ambrosia artemisiifolia); assay: Test C preemergence, visual plant response rating
How it was run: as §1

[7] = test system: Italian ryegrass (Lolium mutiflorum); assay: Test C postemergence, visual plant response rating
How it was run: as §1

[8] = test system: barnyardgrass (Echinochloa crus-galli); assay: Test C postemergence, visual plant response rating
How it was run: as §1

[9] = test system: blackgrass (Alopecurus myosuroides); assay: Test C postemergence, visual plant response rating
How it was run: as §1

corn (Zea mays) = assay: Test C postemergence, visual plant response rating
How it was run: as §1

[10] = test system: foxtail, giant (giant foxtail, Setaria faberi); assay: Test C postemergence, visual plant response rating
How it was run: as §1

[11] = test system: galium (catchweed bedstraw, Galium aparine); assay: Test C postemergence, visual plant response rating
How it was run: as §1

kochia (Bassia scoparia) [12] = assay: Test C postemergence, visual plant response rating
How it was run: as §1

[13] = test system: pigweed (Amaranthus retroflexus); assay: Test C postemergence, visual plant response rating
How it was run: as §1

[14] = test system: ragweed (common ragweed, Ambrosia artemisiifolia); assay: Test C postemergence, visual plant response rating
How it was run: as §1

[15] = test system: wheat (Triticum aestivum); assay: Test C postemergence, visual plant response rating
How it was run: as §1

[16] = test system: barnyardgrass (Echinochloa crus-galli); assay: Test D flooded paddy test, visual plant response rating; conditions: 250 g ai/ha, scale 0 to 100 (0 no effect, 100 complete control), 13 to 15 d
How it was run: (§2)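 Plants grown to the 2-leaf stage; pots flooded to 3 cm above soil and compound applied directly into paddy water, depth held throughout. Kept in greenhouse 13 to 15 d, then rated visually against untreated controls on a 0–100 scale (0 no effect, 100 complete control).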

[17] = test system: duck salad (Heteranthera limosa); assay: as above; conditions: 250 g ai/ha, scale 0 to 100 (0 no effect, 100 complete control), 13 to 15 d
How it was run: as §2

rice (Oryza sativa) = assay: as above; conditions: 250 g ai/ha, scale 0 to 100 (0 no effect, 100 complete control), 13 to 15 d
How it was run: as §2

[18] = test system: sedge umbrella (small-flower umbrella sedge, Cyperus difformis); assay: as above; conditions: 250 g ai/ha, scale 0 to 100 (0 no effect, 100 complete control), 13 to 15 d
How it was run: as §2

[19] = Test C, 31 g ai/ha, 0 is no effect, 100 is complete control
[20] = Test C, postemergence, 125 g ai/ha

Row | Structure (SMILES) | Ryegrass, Italian plant response rating (0 to 100 scale) ([1]; 125 g ai/ha) | Ryegrass, Italian plant response rating (0 to 100 scale) [1, 19] | Barnyardgrass plant response rating (0 to 100 scale) ([2]; 125 g ai/ha) | Barnyardgrass plant response rating (0 to 100 scale) [2, 19] | Foxtail, Giant plant response rating (0 to 100 scale) ([3]; 125 g ai/ha) | Foxtail, Giant plant response rating (0 to 100 scale) [3, 19] | Kochia plant response rating (0 to 100 scale) (kochia (Bassia scoparia) [4]; 125 g ai/ha) | Kochia plant response rating (0 to 100 scale) (kochia (Bassia scoparia) [4]; [19]) | Pigweed plant response rating (0 to 100 scale) ([5]; 125 g ai/ha) | Pigweed plant response rating (0 to 100 scale) [5, 19] | Ragweed plant response rating (0 to 100 scale) ([6]; 125 g ai/ha) | Ragweed plant response rating (0 to 100 scale) [6, 19] | Ryegrass, Italian plant response rating (0 to 100 scale) ([7]; Postemergence, 31 g ai/ha) | Ryegrass, Italian plant response rating (0 to 100 scale) [7, 20] | Barnyardgrass plant response rating (0 to 100 scale) ([8]; Postemergence, 31 g ai/ha) | Barnyardgrass plant response rating (0 to 100 scale) [8, 20] | Blackgrass plant response rating (0 to 100 scale) ([9]; Postemergence, 31 g ai/ha) | Blackgrass plant response rating (0 to 100 scale) [9, 20] | Corn plant response rating (0 to 100 scale) (corn (Zea mays); Postemergence, 31 g ai/ha) | Corn plant response rating (0 to 100 scale) (corn (Zea mays); [20]) | other results
1 | CON=C(c1ccc(F)c(Br)c1)c1c(O)c(C)nn(C)c1=O [Compound 177] | 10 | 0 | 60 | 40 | 10 | 0 | 0 | 0 | 10 | 0 | 20 | 0 | 30 | 60 | 0 | 20 | 0 | 0 | 0 | 0 | Foxtail, Giant plant response rating (0 to 100 scale) ([10]; Postemergence, 31 g ai/ha): 10; Foxtail, Giant plant response rating (0 to 100 scale) [10, 20]: 10; Galium plant response rating (0 to 100 scale) ([11]; Postemergence, 31 g ai/ha): 40; Galium plant response rating (0 to 100 scale) [11, 20]: 80; Kochia plant response rating (0 to 100 scale) (kochia (Bassia scoparia) [12]; Postemergence, 31 g ai/ha): 10; Kochia plant response rating (0 to 100 scale) (kochia (Bassia scoparia) [12]; [20]): 70; Pigweed plant response rating (0 to 100 scale) ([13]; Postemergence, 31 g ai/ha): 40; Pigweed plant response rating (0 to 100 scale) [13, 20]: 60; Ragweed plant response rating (0 to 100 scale) ([14]; Postemergence, 31 g ai/ha): 20; Ragweed plant response rating (0 to 100 scale) [14, 20]: 60; Wheat plant response rating (0 to 100 scale) ([15]; Postemergence, 31 g ai/ha): 0; Wheat plant response rating (0 to 100 scale) [15, 20]: 0; Plant response rating, Barnyardgrass (Flood) [16]: 0; Plant response rating, Ducksalad (Flood) [17]: 0; Plant response rating, Rice (Flood) (rice (Oryza sativa)): 0; Plant response rating, Sedge, Umbrella (Flood) [18]: 0
2 | C#CCON=C(c1ccc(Cl)c(Cl)c1)c1c(O)c(C)nn(C)c1=O [Compound 178] | 70 | 0 | 50 | 30 | 60 | 10 | 0 | 0 | 70 | 20 | 40 | 0 | 20 | 90 | 20 | 50 | 0 | 30 | 0 | 10 | Foxtail, Giant plant response rating (0 to 100 scale) ([10]; Postemergence, 31 g ai/ha): 10; Foxtail, Giant plant response rating (0 to 100 scale) [10, 20]: 30; Galium plant response rating (0 to 100 scale) ([11]; Postemergence, 31 g ai/ha): 40; Galium plant response rating (0 to 100 scale) [11, 20]: 80; Kochia plant response rating (0 to 100 scale) (kochia (Bassia scoparia) [12]; Postemergence, 31 g ai/ha): 40; Kochia plant response rating (0 to 100 scale) (kochia (Bassia scoparia) [12]; [20]): 70; Pigweed plant response rating (0 to 100 scale) ([13]; Postemergence, 31 g ai/ha): 20; Pigweed plant response rating (0 to 100 scale) [13, 20]: 40; Ragweed plant response rating (0 to 100 scale) ([14]; Postemergence, 31 g ai/ha): 0; Ragweed plant response rating (0 to 100 scale) [14, 20]: 40; Wheat plant response rating (0 to 100 scale) ([15]; Postemergence, 31 g ai/ha): 0; Wheat plant response rating (0 to 100 scale) [15, 20]: 80; Plant response rating, Barnyardgrass (Flood) [16]: 0; Plant response rating, Ducksalad (Flood) [17]: 0; Plant response rating, Rice (Flood) (rice (Oryza sativa)): 0; Plant response rating, Sedge, Umbrella (Flood) [18]: 0
3 | Cc1nn(C)c(=O)c(/C(=N/OC(C)C)c2cc(Cl)cc(Cl)c2F)c1O [Compound 179] | 100 | 100 | 100 | 90 | 100 | 100 | 90 | 90 | 100 | 100 | 100 | 90 | 90 | 100 | 90 | 80 | 80 | 90 | 30 | 80 | Foxtail, Giant plant response rating (0 to 100 scale) ([10]; Postemergence, 31 g ai/ha): 90; Foxtail, Giant plant response rating (0 to 100 scale) [10, 20]: 100; Galium plant response rating (0 to 100 scale) ([11]; Postemergence, 31 g ai/ha): 100; Galium plant response rating (0 to 100 scale) [11, 20]: 100; Kochia plant response rating (0 to 100 scale) (kochia (Bassia scoparia) [12]; Postemergence, 31 g ai/ha): 80; Kochia plant response rating (0 to 100 scale) (kochia (Bassia scoparia) [12]; [20]): 100; Pigweed plant response rating (0 to 100 scale) ([13]; Postemergence, 31 g ai/ha): 100; Pigweed plant response rating (0 to 100 scale) [13, 20]: 100; Ragweed plant response rating (0 to 100 scale) ([14]; Postemergence, 31 g ai/ha): 100; Ragweed plant response rating (0 to 100 scale) [14, 20]: 100; Wheat plant response rating (0 to 100 scale) ([15]; Postemergence, 31 g ai/ha): 80; Wheat plant response rating (0 to 100 scale) [15, 20]: 100; Plant response rating, Barnyardgrass (Flood) [16]: 95; Plant response rating, Ducksalad (Flood) [17]: 80; Plant response rating, Rice (Flood) (rice (Oryza sativa)): 70; Plant response rating, Sedge, Umbrella (Flood) [18]: 95
4 | C#CCO/N=C(\c1c(O)c(C)nn(C)c1=O)c1cc(Cl)cc2ccccc12 [Compound 191] | 80 | 30 | 90 | 30 | 90 | 70 | 60 | 10 | 100 | 80 | 80 | 50 | 0 | 80 | 80 | 90 | 80 | 70 | 10 | 60 | Foxtail, Giant plant response rating (0 to 100 scale) ([10]; Postemergence, 31 g ai/ha): 70; Foxtail, Giant plant response rating (0 to 100 scale) [10, 20]: 80; Galium plant response rating (0 to 100 scale) ([11]; Postemergence, 31 g ai/ha): 70; Galium plant response rating (0 to 100 scale) [11, 20]: 100; Kochia plant response rating (0 to 100 scale) (kochia (Bassia scoparia) [12]; Postemergence, 31 g ai/ha): 50; Kochia plant response rating (0 to 100 scale) (kochia (Bassia scoparia) [12]; [20]): 80; Pigweed plant response rating (0 to 100 scale) ([13]; Postemergence, 31 g ai/ha): 90; Pigweed plant response rating (0 to 100 scale) [13, 20]: 100; Ragweed plant response rating (0 to 100 scale) ([14]; Postemergence, 31 g ai/ha): 70; Ragweed plant response rating (0 to 100 scale) [14, 20]: 80; Wheat plant response rating (0 to 100 scale) ([15]; Postemergence, 31 g ai/ha): 0; Wheat plant response rating (0 to 100 scale) [15, 20]: 70; Plant response rating, Barnyardgrass (Flood) [16]: 70; Plant response rating, Ducksalad (Flood) [17]: 75; Plant response rating, Rice (Flood) (rice (Oryza sativa)): 60; Plant response rating, Sedge, Umbrella (Flood) [18]: 80
